Like-named read-outs stand apart in the source and are kept apart here.
Experiments:
[1] = system: Escherichia coli K-12 MG1655 and evolved isolates; format: cell-based; conditions: 45 g/L pimelic acid
Experimental: Five colonies from wild-type K-12 MG1655 and 10 individual colonies deriving from each population were inoculated into 300 μL M9+1% glucose in 96 well deepwell plates and incubated in a 300 rpm plate shaker at 37° C. The next day, cells were diluted 10× in M9+1% glucose and 30 μL was transferred into clear-bottomed 96 well half-deepwell plates (with rectangular wells) containing M9+1% glucose and M9+1% glucose+52.78 g/L glutaric acid or 55.56 g/L adipic acid, such that the final concentration of glutaric acid or adipic acid was 47.5 g/L or 50 g/L, respectively. In addition, cryogenic glycerol stocks of the overnight culture were saved in a 96 well plate format. Half deepwell plates were incubated at 37° C. with 225 rpm shaking in a Growth Profiler (Enzyscreen), with optical scans of the plates taken at 15 minute intervals. Green pixel values integrated over a 1 mm diameter circular area in each well were converted to OD600 values using a previously determined calibration between OD600 and green pixel values.
Additionally, each evolved isolate was tested for cross-tolerance toward other dicarboxylic acids of interest. […] All diacids tested were either the neutral sodium salts, or the free diacid was neutralized with sodium hydroxide to pH 7.0 for testing.

[2] = system: Escherichia coli K-12 MG1655; test: Screening for tolerance in wild-type cells: growth in varying concentrations of neutralized diacid, Biolector; format: cell-based; conditions: for tlag (lag time), mean / μ (growth rate), mean: neutralized with sodium hydroxide
Experimental: Escherichia coli K-12 MG1655 was grown overnight in M9 minimal medium+1% glucose and subcultured the following morning to an initial OD600 of 0.05 in M9+1% glucose. Cells were grown to mid-exponential phase (OD600 0.7-1.0) and were back-diluted with fresh medium to an OD600 of 0.7. The diluted cells were used to inoculate M9+1% glucose containing varying concentrations of glutaric acid or adipic acid which were neutralized to pH 7.0 with sodium hydroxide, and growth was measured in FlowerPlates in a Biolector microbioreactor system (m2p-labs) at 37° C. with 1000 rpm shaking. The culture volume in each well was 1.4 mL.

O=C(O)CCCCCC(=O)O [pimelic acid]
growth rate μ (mean) ([1]; strain ADIP1-1): 0.432 h⁻¹
lag time tlag (mean) ([1]; strain ADIP1-1): 9.6 h
growth rate μ (mean) ([1]; strain ADIP1-9): 0.421 h⁻¹
lag time tlag (mean) ([1]; strain ADIP1-9): 8.8 h
growth rate μ (mean) ([1]; strain ADIP2-5): 0.474 h⁻¹
lag time tlag (mean) ([1]; strain ADIP2-5): 11.0 h
growth rate μ (mean) ([1]; strain ADIP2-6): 0.480 h⁻¹
lag time tlag (mean) ([1]; strain ADIP2-6): 10.6 h
growth rate μ (mean) ([1]; strain ADIP2-10): 0.479 h⁻¹
lag time tlag (mean) ([1]; strain ADIP2-10): 10.8 h
growth rate μ (mean) ([1]; strain ADIP3-2): 0.438 h⁻¹
lag time tlag (mean) ([1]; strain ADIP3-2): 8.4 h
growth rate μ (mean) ([1]; strain ADIP3-4): 0.435 h⁻¹
lag time tlag (mean) ([1]; strain ADIP3-4): 8.5 h
growth rate μ (mean) ([1]; strain ADIP3-8): 0.426 h⁻¹
lag time tlag (mean) ([1]; strain ADIP3-8): 9.1 h
growth rate μ (mean) ([1]; strain ADIP4-1): 0.348 h⁻¹
lag time tlag (mean) ([1]; strain ADIP4-1): 9.9 h
growth rate μ (mean) ([1]; strain ADIP4-8): 0.349 h⁻¹
lag time tlag (mean) ([1]; strain ADIP4-8): 10.3 h
growth rate μ (mean) ([1]; strain ADIP5-2): 0.385 h⁻¹
lag time tlag (mean) ([1]; strain ADIP5-2): 8.7 h
growth rate μ (mean) ([1]; strain ADIP5-6): 0.483 h⁻¹
lag time tlag (mean) ([1]; strain ADIP5-6): 8.5 h
growth rate μ (mean) ([1]; strain ADIP6-3): 0.346 h⁻¹
lag time tlag (mean) ([1]; strain ADIP6-3): 10.4 h
growth rate μ (mean) ([1]; strain ADIP6-9): 0.278 h⁻¹
lag time tlag (mean) ([1]; strain ADIP6-9): 11.1 h
growth rate μ (mean) ([1]; strain ADIP6-10): 0.360 h⁻¹
lag time tlag (mean) ([1]; strain ADIP6-10): 9.7 h
growth rate μ (mean) ([1]; strain ADIP7-2): 0.393 h⁻¹
lag time tlag (mean) ([1]; strain ADIP7-2): 9.0 h
growth rate μ (mean) ([1]; strain ADIP7-5): 0.376 h⁻¹
lag time tlag (mean) ([1]; strain ADIP7-5): 9.4 h
growth rate μ (mean) ([1]; strain ADIP8-3): 0.235 h⁻¹
lag time tlag (mean) ([1]; strain ADIP8-3): 12.8 h
growth rate μ (mean) ([1]; strain ADIP8-7): 0.268 h⁻¹
lag time tlag (mean) ([1]; strain ADIP8-7): 12.8 h
growth rate μ (mean) ([1]; strain ADIP8-10): 0.249 h⁻¹
lag time tlag (mean) ([1]; strain ADIP8-10): 12.8 h
growth rate μ (mean) ([1]; strain GLUT1-3): 0.369 h⁻¹
lag time tlag (mean) ([1]; strain GLUT1-3): 10.4 h
growth rate μ (mean) ([1]; strain GLUT1-9): 0.337 h⁻¹
lag time tlag (mean) ([1]; strain GLUT1-9): 11.9 h
growth rate μ (mean) ([1]; strain GLUT1-10): 0.399 h⁻¹
lag time tlag (mean) ([1]; strain GLUT1-10): 13.1 h
growth rate μ (mean) ([1]; strain GLUT2-1): 0.362 h⁻¹
lag time tlag (mean) ([1]; strain GLUT2-1): 11.6 h
growth rate μ (mean) ([1]; strain GLUT2-9): 0.349 h⁻¹
lag time tlag (mean) ([1]; strain GLUT2-9): 10.3 h
growth rate μ (mean) ([1]; strain GLUT2-10): 0.383 h⁻¹
lag time tlag (mean) ([1]; strain GLUT2-10): 10.2 h
growth rate μ (mean) ([1]; strain GLUT3-5): 0.280 h⁻¹
lag time tlag (mean) ([1]; strain GLUT3-5): 17.6 h
growth rate μ (mean) ([1]; strain GLUT3-7): 0.360 h⁻¹
lag time tlag (mean) ([1]; strain GLUT3-7): 11.5 h
growth rate μ (mean) ([1]; strain GLUT3-9): 0.351 h⁻¹
lag time tlag (mean) ([1]; strain GLUT3-9): 15.7 h
growth rate μ (mean) ([1]; strain GLUT4-1): 0.378 h⁻¹
lag time tlag (mean) ([1]; strain GLUT4-1): 12.8 h
growth rate μ (mean) ([1]; strain GLUT4-4): 0.388 h⁻¹
lag time tlag (mean) ([1]; strain GLUT4-4): 13.2 h
growth rate μ (mean) ([1]; strain GLUT4-10): 0.371 h⁻¹
lag time tlag (mean) ([1]; strain GLUT4-10): 11.5 h
growth rate μ (mean) ([1]; strain GLUT5-4): 0.433 h⁻¹
lag time tlag (mean) ([1]; strain GLUT5-4): 12.1 h
growth rate μ (mean) ([1]; strain GLUT5-5): 0.420 h⁻¹
lag time tlag (mean) ([1]; strain GLUT5-5): 12.8 h
growth rate μ (mean) ([1]; strain GLUT5-9): 0.428 h⁻¹
lag time tlag (mean) ([1]; strain GLUT5-9): 13.0 h
growth rate μ (mean) ([1]; strain GLUT6-4): 0.356 h⁻¹
lag time tlag (mean) ([1]; strain GLUT6-4): 11.7 h
growth rate μ (mean) ([1]; strain GLUT6-5): 0.348 h⁻¹
lag time tlag (mean) ([1]; strain GLUT6-5): 11.3 h
growth rate μ (mean) ([1]; strain GLUT6-10): 0.353 h⁻¹
lag time tlag (mean) ([1]; strain GLUT6-10): 12.1 h
growth rate μ (mean) ([1]; strain GLUT7-2): 0.349 h⁻¹
lag time tlag (mean) ([1]; strain GLUT7-2): 11.6 h
growth rate μ (mean) ([1]; strain GLUT7-6): 0.357 h⁻¹
lag time tlag (mean) ([1]; strain GLUT7-6): 14.8 h
growth rate μ (mean) ([1]; strain GLUT7-7): 0.335 h⁻¹
lag time tlag (mean) ([1]; strain GLUT7-7): 14.1 h
growth rate μ (mean) ([1]; strain GLUT8-5): 0.349 h⁻¹
lag time tlag (mean) ([1]; strain GLUT8-5): 11.8 h
growth rate μ (mean) ([1]; strain GLUT8-6): 0.184 h⁻¹
lag time tlag (mean) ([1]; strain GLUT8-6): 20.9 h
growth rate μ (mean) ([1]; strain GLUT8-9): 0.259 h⁻¹
lag time tlag (mean) ([1]; strain GLUT8-9): 11.2 h
growth rate μ (mean) ([1]; strain MG1655 (Table 28)): 0.275 h⁻¹
lag time tlag (mean) ([1]; strain MG1655 (Table 28)): 13.4 h
growth rate μ (mean) ([1]; strain MG1655 (Table 29)): 0.271 h⁻¹
lag time tlag (mean) ([1]; strain MG1655 (Table 29)): 12.4 h
tlag (lag time), mean ([2]; 10 g/L): 1.9 h
μ (growth rate), mean ([2]; 10 g/L, M9+1% glucose, 37° C): 0.694 h⁻¹
tlag (lag time), mean ([2]; 20 g/L): 2.4 h
μ (growth rate), mean ([2]; 20 g/L): 0.656 h⁻¹
tlag (lag time), mean ([2]; 25 g/L): 2.5 h
μ (growth rate), mean ([2]; 25 g/L): 0.572 h⁻¹
tlag (lag time), mean ([2]; 30 g/L): 3.3 h
μ (growth rate), mean ([2]; 30 g/L): 0.560 h⁻¹
tlag (lag time), mean ([2]; 35 g/L): 4.1 h
μ (growth rate), mean ([2]; 35 g/L): 0.534 h⁻¹
tlag (lag time), mean ([2]; 40 g/L): 4.3 h
μ (growth rate), mean ([2]; 40 g/L): 0.439 h⁻¹
tlag (lag time), mean ([2]; 45 g/L): 4.6 h
μ (growth rate), mean ([2]; 45 g/L): 0.280 h⁻¹
growth of K-12 MG1655 ([2]; at 45 g/L): Robust growth was still observed

— patent US20230139445A1, “BACTERIAL CELLS WITH IMPROVED TOLERANCE TO DIACIDS” (priority 2016, published 2023)
